Data on eleven compounds can be found in patent publication EP3623369A1, “NOVEL MORPHOLINYL AMINE COMPOUNDS FOR THE TREATMENT OF AUTOIMMUNE DISEASE” (F. Hoffmann-La Roche AG, priority 2018, dated 2020).

The target in this assay is T1, hTLR7 (Homo sapiens, UniProt Q9NYK1).
T1 sequence (Q9NYK1 27-1049): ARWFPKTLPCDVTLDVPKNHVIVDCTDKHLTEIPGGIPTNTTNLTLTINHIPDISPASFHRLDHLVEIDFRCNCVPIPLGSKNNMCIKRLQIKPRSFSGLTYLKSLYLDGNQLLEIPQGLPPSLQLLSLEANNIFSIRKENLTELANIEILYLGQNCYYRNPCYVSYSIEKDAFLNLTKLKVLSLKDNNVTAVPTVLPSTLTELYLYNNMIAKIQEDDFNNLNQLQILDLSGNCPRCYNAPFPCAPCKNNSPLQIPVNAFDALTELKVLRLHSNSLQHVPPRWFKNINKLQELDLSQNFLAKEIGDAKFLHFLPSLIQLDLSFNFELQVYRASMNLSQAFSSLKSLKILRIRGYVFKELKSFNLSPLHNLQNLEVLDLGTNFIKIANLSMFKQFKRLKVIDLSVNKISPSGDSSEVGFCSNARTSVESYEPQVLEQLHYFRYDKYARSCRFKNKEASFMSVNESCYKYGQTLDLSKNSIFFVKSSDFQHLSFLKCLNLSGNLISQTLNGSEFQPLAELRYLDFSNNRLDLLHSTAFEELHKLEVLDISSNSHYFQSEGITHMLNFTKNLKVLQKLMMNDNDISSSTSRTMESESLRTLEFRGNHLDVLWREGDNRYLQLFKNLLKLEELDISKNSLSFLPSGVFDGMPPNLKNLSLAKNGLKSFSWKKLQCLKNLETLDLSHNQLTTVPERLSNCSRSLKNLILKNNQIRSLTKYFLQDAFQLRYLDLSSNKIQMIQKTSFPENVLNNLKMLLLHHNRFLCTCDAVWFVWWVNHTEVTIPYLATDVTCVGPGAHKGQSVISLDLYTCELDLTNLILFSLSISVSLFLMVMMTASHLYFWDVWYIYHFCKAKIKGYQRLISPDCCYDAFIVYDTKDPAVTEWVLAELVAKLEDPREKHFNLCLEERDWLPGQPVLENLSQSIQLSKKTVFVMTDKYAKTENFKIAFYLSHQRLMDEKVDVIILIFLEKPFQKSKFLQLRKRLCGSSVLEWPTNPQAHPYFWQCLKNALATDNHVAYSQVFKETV
Briefly: HEK293-Blue-hTLR-7 cells assay (SEAP reporter, R848 stimulation). The note with it: HEK293-Blue-hTLR7 cells, R848, 20 hrs; 0.003 is the lowest tested concentration; read-out: HEK/hTLR7 IC50. Format: cell-based. The method, then: The following tests were carried out in order to determine the activity of the compounds of formula (I) or (Ia) in HEK293-Blue-hTLR-7/8/9 cells assay.
HEK293-Blue-hTLR-7 cells assay:
A stable HEK293-Blue-hTLR-7 cell line was purchased from InvivoGen (Cat.#: hkb-htlr7, San Diego, California, USA). These cells were originally designed for studying the stimulation of human TLR7 by monitoring the activation of NF-κB. A SEAP (secreted embryonic alkaline phosphatase) reporter gene was placed under the control of the IFN-β minimal promoter fused to five NF-κB and AP-1-binding sites. The SEAP was induced by activating NF-κB and AP-1 via stimulating HEK-Blue hTLR7 cells with TLR7 ligands. Therefore the reporter expression was declined by TLR7 antagonist under the stimulation of a ligand, such as R848 (Resiquimod), for incubation of 20 hrs. The cell culture supernatant SEAP reporter activity was determined using QUANTI-Blue™ kit (Cat.#: rep-qb1, Invivogen, San Diego, Ca, USA) at a wavelength of 640 nm, a detection medium that turns purple or blue in the presence of alkaline phosphatase.
HEK293-Blue-hTLR7 cells were incubated at a density of 250,000∼450,000 cells/mL in a volume of 170 µL in a 96-well plate in Dulbecco's Modified Eagle's medium (DMEM) containing 4.5 g/L glucose, 50 U/mL penicillin, […], […], 2 mM L-glutamine, 10% (v/v) heat-inactivated fetal bovine serum with addition of 20 µL test compound in a serial dilution in the presence of final DMSO at 1% and 10 µL of 20uM R848 in above DMEM, perform incubation under 37 °C in a CO2 incubator for 20 hrs. Then 20 µL of the supernatant from each well was incubated with 180 µL Quanti-blue substrate solution at 37 °C for 2 hrs and the absorbance was read at 620∼655 nm using a spectrophotometer. The signalling pathway that TLR7 activation leads to downstream NF-κB activation has been widely accepted, and therefore similar reporter assay was modified for evaluating TLR7 antagonist.
Take `C[C@@H]1CN(c2ccc(C#N)c3ncccc23)C[C@H](CN2Cc3ccc(N4CC5(CCN5)C4)cc3C2)O1` [Example 55, 5-[(2S,6R)-2-[[5-(1,6-diazaspiro[3.3]heptan-6-yl)isoindolin-2-yl]methyl]-6-methyl-morpholin-4-yl]quinoline-8-carbonitrile]: the IC50 stood at 0.08 µM. As for `C[C@@H]1CN(c2ccc(C#N)c3ncccc23)C[C@H](CN2Cc3cc(N4CCNCC4)cc(F)c3C2)O1` [Example 59, 5-[(2S,6R)-2-[(4-fluoro-6-piperazin-1-yl-isoindolin-2-yl)methyl]-6-methyl-morpholin-4-yl]quinoline-8-carbonitrile], the figure is 0.018 µM; as for `C[C@@H]1CN(c2ccc(C#N)c3nccnc23)C[C@H](CN2Cc3cnc(N4CCNCC4)cc3C2)O1` [Example 60, 8-[(2R,6S)-2-methyl-6-[(6-piperazin-1-yl-1,3-dihydropyrrolo[3,4-c]pyridin-2-yl)methyl]morpholin-4-yl]quinoxaline-5-carbonitrile], 0.011 µM; as for `C[C@@H]1CN(c2ccc(C#N)c3ncccc23)C[C@H](CN2Cc3cnc(N4CCNCC4)cc3C2)O1` [Example 61, 5-[(2R,6S)-2-methyl-6-[(6-piperazin-1-yl-1,3-dihydropyrrolo[3,4-c]pyridin-2-yl)methyl]morpholin-4-yl]quinoline-8-carbonitrile], 0.023 µM. `C[C@@H]1CN(c2ccc3c(c2)CN(C[C@H]2CN(c4ccc(C#N)c5ncccc45)C[C@@H](C)O2)C3)CCN1` [Example 62, 5-[(2R,6S)-2-methyl-6-[[5-[(3R)-3-methylpiperazin-1-yl]isoindolin-2-yl]methyl]morpholin-4-yl] quinoline-8-carbonitrile]: the IC50 worked out at 0.026 µM. As for `C[C@@H]1CN(c2ccc(C#N)c3ncccc23)C[C@H](CN2Cc3cnc(N4CCNCC4)nc3C2)O1` [Example 63, 5-[(2R,6S)-2-methyl-6-[(2-piperazin-1-yl-5,7-dihydropyrrolo[3,4-d]pyrimidin-6-yl)methyl]morpholin-4-yl]quinoline-8-carbonitrile], the figure is 0.013 µM; as for `C[C@@H]1CN(c2ccc(C#N)c3ncccc23)C[C@H](CN2Cc3ccc(N4CCN[C@@H](C)C4)cc3C2)O1` [Example 64, 5-[(2R,6S)-2-methyl-6-[[5-[(3S)-3-methylpiperazin-1-yl]isoindolin-2-yl]methyl]morpholin-4-yl]quinoline-8-carbonitrile], 0.04 µM; as for `C[C@@H]1CN(c2ccc3c(c2)CN(C[C@H]2CN(c4ccc(C#N)c5nccnc45)C[C@@H](C)O2)C3)CCN1` [Example 65, 8-[(2R,6S)-2-methyl-6-[[5-[(3R)-3-methylpiperazin-1-yl]isoindolin-2-yl]methyl]morpholin-4-yl] quinoxaline-5-carbonitrile], 0.008 µM. Regarding `C[C@@H]1CN(c2ccc(C#N)c3nccnc23)C[C@H](CN2Cc3ccc(N4CCN[C@@H](C)C4)cc3C2)O1` [Example 66, 8-[(2R,6S)-2-methyl-6-[[5-[(3S)-3-methylpiperazin-1-yl]isoindolin-2-yl]methyl]morpholin-4-yl]quinoxaline-5-carbonitrile], the IC50 is 0.006 µM. Consider `COC(=O)C1CN(c2ccc3c(c2)CN(C[C@H]2CN(c4ccc(C#N)c5ncccc45)C[C@@H](C)O2)C3)CCN1` (stereo partly drawn) [Example 67, Methyl 4-[2-[[(2S,6R)-4-(8-cyano-5-quinolyl)-6-methyl-morpholin-2-yl]methyl]isoindolin-5-yl] piperazine-2-carboxylate], for which the IC50 turned out to be 0.056 µM.

For `C[C@@H]1CN(c2ccc(C#N)c3ncccc23)C[C@H](CN2Cc3cc(N4CCN(C)CC4)cc(F)c3C2)O1` [Example 69, 5-[(2S,6R)-2-[[4-fluoro-6-(4-methylpiperazin-1-yl)isoindolin-2-yl]methyl]-6-methyl-morpholin-4-yl]quinoline-8-carbonitrile], the IC50 was 0.043 µM.
